According to patent US20030065039A1, “Biologically active 1,3-bis-aromatic-prop-2-en-1-ones, 1,3-bis-aromatic-propan-1-ones, and 1,3-bis-aromatic-prop-2-yn-1-ones” (Statens Serum Institute, priority 1997, published 2003):
Where two headings read alike, the source gives them in different places.

What was measured:
Format in all cases: cell-based
[1] = system: TNF-α; test: TNF-α production by human peripheral blood mononuclear cells, culture supernatant (ELISA)
Description: Cells: Peripheral blood mononuclear cells obtained from healthy individuals. The cells were separated by a conventional method lymphoprep) and suspended in RMPI 1640 containing 5% human serum.
Stimulation of cytokine-release from human mononuclear cells: Human peripheral blood mononuclear cells from Danish donors were suspended in 1-10% (v/v) human serum in RPMI 1640 and adjusted to 2×10^6 cells per ml. 0.1 ml volumes were then dispensed into wells of 96-well microtiter plates. […] In some experiments cells were preincubated with drugs for 2 hrs before addition of stimulation antigens. The cultures were incubated overnight for TNF-α and IL-6 assays.
Supernatants were collected and assayed for TNF-α, IL-1α and IL-6 by ELISA procedures (Jakobsen et al., 1993, Fomsgaard et al., 1988, Hansen et al., 1991) with the following modifications. ELISA Maxisorp plates (Nunc, Roskilde, Denmark) were coated for 24 hrs at 4 C with 100 μl per well of 2.5 μg/ml rabbit polyclonal IgG to human recombinant TNF, IL-1α or IL-6 in 100 mM sodiumhydrogencarbonate. Non-attached sites were blocked for 1 h by 200 μl per well of 2% human serum slbumin in PBS (1 h at 37° C.), and the wells were washed 4 times in 2.5% NaCl, 0.1% Tween 20 (Merck, Darmstadt, Germany). This washing procedure was done after each of the following incubating steps:
1) 100 μl culture supernatants made to 50% (v/v) in incubation buffer (4% (v/v) normal rabbit serum, DAKO code X902), 1% polyethylene glycol (MW 6,000), 2.5% NaCl, 0.1% Tween 20 in phosphate buffered saline (PBS) were incubated 2 hrs at 37° C., dilutions of native as well as recombinant cytokine standards in the same incubation buffer were asssayed in parallel with the tested supernatants,
2) 100 μl per well of biotinilated rabbit antibodies to recombinant TNF-α, IL-1α or IL-6 (1.5 μg/ml in 0.5% human serum albumin, 0.1% Tween 20 in PBS) were added at 37° for 2 hrs,
3) […] per well of a 1:1000 dilution of streptavidin-peroxidase (Amersham, UK), at room temperature for 30 min.
Enzyme activities were quantitated after addition of 100 μl per well of 0.67 mg/ml 1,2-phenyldiamine hydrochloride (DAKO) dissolved in 100 mM citric acid-phosphate buffer, pH 5.0 containing 0.015% (v/v) H2O2. The reactions were stopped by adding 50 μl per well of 2.5 M H2SO4, and the optical densities are measured in an ELISA scanner at 490 nm against a test reference at 620 nm.
Assay: The compounds were prepared as stock solution at a concentration of 1 mg/ml in medium containing 10% DMSO. The dilutions were made in medium. The cells were stimulated with either SPAG (a malaria antigen TNF-inducer) or bacterial LPS. The supernatant of cell cultures were assayed for TNF-α using a commercial ELISA kit.

[2] = system: Leishmania promastigotes; test: Leishmania promastigotes Assay; conditions: promastigotes, 3H-thymidine uptake, read-out: Leishmania IC50 ± SD
Method in brief: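 L. major (WHO Iran vaccine strain) and L. donovani MHOM/KE/85/NLB 274 promastigotes (3×10^6/ml, day 3 and 6 cultures) exposed to compound 2 h at 26 °C, then 3H-thymidine 18 h; incorporation counted by scintillation. Microscopic counts and flagellar motility also assessed.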

[3] = system: human lymphocytes; test: Lymphocyte Proliferation Assay; conditions: PHA provoked proliferation of human lymphocytes, read-out: Lymphocytes IC50 ± SD
Method in brief: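 Ficoll-isolated human blood mononuclear cells (0.63×10^5/ml) in RPMI 1640 with 5% FCS were cultured in triplicate with test compound and PHA or PPD for 3 or 7 days. Proliferation measured by ^3H-thymidine incorporation over the final 24 h; triplicate median recorded.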

[4] = Experiment 1, LPS, 12.5 μg/ml, Control 1.17
[5] = Experiment 1, LPS, 25 μg/ml, Control 1.17
[6] = Experiment 1, LPS, 50 μg/ml, Control 1.17
[7] = Experiment 1, LPS, 100 μg/ml, Control 1.17
[8] = Experiment 1, SPAG, 12.5 μg/ml, Control 3.73
[9] = Experiment 1, SPAG, 25 μg/ml, Control 3.73
[10] = Experiment 1, SPAG, 50 μg/ml, Control 3.73
[11] = Experiment 1, SPAG, 100 μg/ml, Control 3.73
[12] = Experiment 2, LPS, 1.562 μg/ml, Control 2.06
[13] = Experiment 2, LPS, 3.125 μg/ml, Control 2.06
[14] = Experiment 2, LPS, 6.25 μg/ml, Control 2.06
[15] = Experiment 2, LPS, 12.5 μg/ml, Control 2.06
[16] = Experiment 2, SPAG, 1.562 μg/ml, Control 2.28
[17] = Experiment 2, SPAG, 3.125 μg/ml, Control 2.28
[18] = Experiment 2, SPAG, 6.25 μg/ml, Control 2.28
[19] = Experiment 2, SPAG, 12.5 μg/ml, Control 2.28

Row | IC50 ([2]; Leishmania) [µM] | SMILES | TNF-α production (OD values) [1, 4] [OD] | TNF-α production (OD values) [1, 5] [OD] | TNF-α production (OD values) [1, 6] [OD] | TNF-α production (OD values) [1, 7] [OD] | TNF-α production (OD values) [1, 8] [OD] | TNF-α production (OD values) [1, 9] [OD] | TNF-α production (OD values) [1, 10] [OD] | TNF-α production (OD values) [1, 11] [OD] | IC50 ([3]; Lymphocyte) [µM] | TNF-α production (OD values) [1, 12] [OD] | TNF-α production (OD values) [1, 13] [OD] | TNF-α production (OD values) [1, 14] [OD] | TNF-α production (OD values) [1, 15] [OD] | TNF-α production (OD values) [1, 16] [OD] | TNF-α production (OD values) [1, 17] [OD] | TNF-α production (OD values) [1, 18] [OD] | TNF-α production (OD values) [1, 19] [OD] | further results
1 | 16 ± 1 | COc1cc(/C=C/C(=O)c2ccc([N+](=O)[O-])cc2)cc(OC)c1 [PH105, 4′-nitro-3,5-dimethoxychalcone] | 1.07 | 1.13 | 1.69 | 0.99 | 1.94 | 2.00 | 4.00 | 2.3 | 20 ± 1 | – | – | – | – | – | – | – | – | inhibitory effect on TNF-α production [1]: no or very little inhibitory effect
2 | 31 ± 2 | COc1cc(/C=C/C(=O)c2ccc(C3CCCCC3)cc2)cc(OC)c1 [PH104, 3,5-dimethoxy-4′-cyclohexylchalcone] | 1.15 | 0.59 | 0.41 | 0.31 | 0.93 | 0.13 | 0.03 | 0.01 | 39 ± 2 | 1.54 | 1.41 | 1.08 | 0.91 | 2.47 | 2.44 | 1.50 | 0.43 | inhibition at 12.5 µg/mL ([1]; Homo sapiens, PBMC, concentration of 12.5 μg/ml, read-out: inhibition of the production of TNF-α): ~75%; inhibition of the production of TNF-α ([1]; at higher concentrations than 12.5 μg/ml): greater than 75%
3 | – | C=CC(C)(C)c1cc(/C=C/C(=O)c2ccc(O)cc2)c(OC)cc1O [Licochalcone A] | – | – | – | – | – | – | – | – | – | – | – | – | – | – | – | – | – | percentage inhibition of TNF-α production ([1]; Table 1, LPS 1:1000, drug 1 μg/ml): 0%; percentage inhibition of TNF-α production ([1]; Table 1, LPS 1:1000, drug 5 μg/ml): 0%; percentage inhibition of TNF-α production ([1]; Table 1, LPS 1:1000, drug 10 μg/ml): 40%; percentage inhibition of TNF-α production ([1]; Table 1, LPS 1:1000, drug 20 μg/ml, preincubated 2 hrs): 81%; percentage inhibition of TNF-α production ([1]; Table 1, SPAG 1:12.5, drug 1 μg/ml): 0%; percentage inhibition of TNF-α production ([1]; Table 1, SPAG 1:12.5, drug 5 μg/ml): 13%; percentage inhibition of TNF-α production ([1]; Table 1, SPAG 1:12.5, drug 10 μg/ml): 44%; percentage inhibition of TNF-α production ([1]; Table 1, SPAG 1:12.5, drug 20 μg/ml, preincubated 2 hrs): 97%; percentage inhibition of TNF-α production ([1]; Table 2, LPS 1:1000, drug 1.25 μg/ml): 4%; percentage inhibition of TNF-α production ([1]; Table 2, LPS 1:1000, drug 6.25 μg/ml): 3%; percentage inhibition of TNF-α production ([1]; Table 2, LPS 1:1000, drug 12.5 μg/ml): 38%; percentage inhibition of TNF-α production ([1]; Table 2, LPS 1:1000, drug 20 μg/ml, preincubated 2 hours): 54%; percentage inhibition of TNF-α production ([1]; Table 2, SPAG 1:12.5, drug 1.25 μg/ml): 54%; percentage inhibition of TNF-α production ([1]; Table 2, SPAG 1:12.5, drug 6.25 μg/ml): 82%; percentage inhibition of TNF-α production ([1]; Table 2, SPAG 1:12.5, drug 12.5 μg/ml): 94%; percentage inhibition of TNF-α production ([1]; Table 2, SPAG 1:12.5, drug 20 μg/ml, preincubated 2 hours): 100%; IC50 [2]: 13 ± 1 µM; IC50 [3]: 48 ± 5 µM
4 | 5.5 ± 0.3 | COc1cc(/C=C/C(=O)c2cccc(F)c2)cc(OC)c1 [PH136, 3′-fluoro-3,5-dimethoxychalcone] | 0.00 | 0.00 | 0.00 | 0.01 | 0.01 | 0.00 | 0.01 | 0.00 | 9.2 ± 0.5 | 1.70 | 1.81 | 2.18 | 0.08 | 3.29 | 4.00 | 1.39 | 0.02 | –
